Laboratory results: US20210260010A1, “COMPOSITIONS AND METHODS FOR THE REDUCTION OR TREATMENT OF INFLAMMATION” (AXCELLA HEALTH INC., priority 2018, published 2021)

Assays:
[1] = system: TNFα; experiment: LPS-induced TNFα secretion in primary human monocyte-derived macrophages (ELISA); type: cell-based; parameters: TNFa Measurements Mean: unit not given here; settings: baseline subtracted; for TNFa Measurements Mean: Donor 1, LPS 0.15 ng/mL
Experimental: Unpurified buffy coats (Research Blood Components) were carefully poured into 50 mL centrifuge tubes and diluted with room temperature Dulbecco's Phosphate Buffered Saline (dPBS) with Calcium and Magnesium (Gibco). Diluted buffy coats were further divided into four total 50 mL centrifuge tubes at 20 mL per tube. Lymphocyte Separation Medium (Corning) was carefully pipetted to the bottom of each centrifuge tube. Mixtures were centrifuged at 850× g for 32 minutes at 20° C. with 0 deceleration and acceleration.
The PBMC layer was separated from other components after centrifugation and added to new 50 mL centrifuge tube containing 25 mL dPBS. Total volume was brought up to 50 mL with dPBS and centrifuged at 600×g for 10 minutes at 20° C. with acceleration of 9, deceleration of 5. Supernatant was carefully removed from cell pellets. The cell pellets were resuspended using 10 mL dPBS. Total volume was then brought up to 50 mL using dPBS and centrifuged at 450×g for 5 min at 20° C. with acceleration of 9, deceleration of 9. The supernatant removal and cell pellet resuspension was repeated again.
The supernatant was then carefully removed from cell pellets. Cell pellets were resuspended in 10 mL dPBS without calcium or magnesium and filtered through a 70 uM cell strainer. The total PBMC number was determined using a Cellometer K2 automated cell counter. A total of 5E6 cells were saved for flow cytometric analysis. Remaining cells were centrifuged at 490×g for 5 minutes at 20° C. with acceleration of 9, deceleration of 9.
CD14+ cells were selected using EasySep™ Human CD14 Positive Selection Kit II ([…] Technologies). Cells were resuspended in cold EasySep™ Buffer ([…] Technologies) at 1×10^8 cells/mL. A total of 100 uL/mL EasySep™ Human CD14 Positive Selection Cocktail II was added to the cell suspension, mixed, and incubated at room temperature for 10 minutes. A total of 100 uL/mL RapidSpheres were added to the mixture and incubated at room temperature for 3 minutes after mixing, then RoboSep buffer was added to bring up the total volume to 10 mL. The mixture in a 15 mL tube was placed in magnet and incubated at room temperature for 3 minutes. Supernatant was discarded and 10 mL fresh EasySep™ buffer was added to 15 mL tube. The addition of RoboSep buffer, mixing, and discarding of supernatant was repeated two more times.
Negative and positive fractions were centrifuged at 490×g for 5 minutes at 20° C. with acceleration of 9, deceleration of 9, and resuspended in DMEM (Gibco) and 10% Heat Inactivated Fetal Bovine Serum (Atlanta Bio) and Penicillin/Streptomycin. Cells were counted and centrifuged again at 490× g for 5 minutes at 20° C. with acceleration of 9, deceleration of 9. After centrifugation, cell were resuspended in DMEM (Gibco) and 10% Heat Inactivated Fetal Bovine Serum (Atlanta Bio) and Penicillin/Streptomycin containing 500 U/mL […] and plated at 1-2×10^6 cells/mL on 10 cm tissue culture plates. Cells were kept in 37° C., 5% CO2 in between feedings/harvest.
Cells were fed every 3-4 days by removing media and unattached cells, centrifuging at 490× g for 5 minutes at 20° C. with acceleration of 9, deceleration of 9, and resuspending in fresh DMEM (Gibco) and 10% Heat Inactivated Fetal Bovine Serum (Atlanta Bio) and Penicillin/Streptomycin containing GM-CSF. Resuspended cells were seeded back onto 10 cm tissue culture plates and incubated at 37° C., 5% CO2. Differentiated macrophages were used for subsequent experiments.
Primary human PMBC derived macrophages were seeded on day 0 at 3.0E4 cells per well in 96-well microplates (ThermoFisher) in Dulbecco's Modified Eagle Medium (DMEM) (Gibco) supplemented with penicillin-streptomycin (Hyclone) and 10% heat inactivated fetal bovine serum (HI-FBS) (Atlanta Bio) and incubated overnight at 37° C., 5% CO2. On day 1, cells were washed once with 150 uL per well DPBS (Gibco) and treated with 75 uL of: • a. […]

[2] = system: MCP-1; experiment: MCP-1 chemokine secretion by TNFα-stimulated primary human hepatic stellate cells (ELISA); type: cell-based
Experimental: Primary human hepatic stellate cells were obtained from Samsara Sciences and grown in Complete HSC Medium to […] confluence in T75 or T150 flasks below passage 10 were seeded into 96-well plates and incubated for 6 hours at 37° C., 5% CO2 in a humidified incubator. After 6 hours, plates were removed from the incubator washed with DPBS and pretreated (±single amino acid dropout, ±supplemental amino acid dose; see experiment for medium composition) overnight, ˜14-15 hours. After overnight pretreatment, the medium was removed from the cells, and the same pretreatment medium, now supplemented with 3 ng/mL TNFα was applied. Plates were incubated for 12 hours at 37° C., 5% CO2. After 12 hour stimulus with TNFα, supernatant was removed and frozen at −80° C. in two separate aliquots. Plates were washed and incubated with CCK-8 viability reagent (Dojindo) for 1 hour. Viability was measured on the Synergy plate reader. Immediately, the medium was removed and the plates were fixed for immunofluorescence staining.
Human CCL2/MCP1 and Human IL-6 were measured by ELISA (Human […] DuoSet ELISA, R&D Systems; Human IL-6 DuoSet ELISA, R&D Systems) at ⅕ and 1/20 dilution in 1× Reagent Diluent (Reagent Ancillary Kit 2, R&D Systems). Data were normalized to the specific per well cell density determined by Hoechst stained nuclei count.
Tables 35-38 show per-cell normalized MCP-1 chemokine secretion in primary human hepatic stellate cells from two donors as a fold change from the plasma amino acid background. Statistical significance calculated by one-way ANOVA with Dunnett's multiple comparison test within each treatment group.

For `CC(C)[C@H](N)C(=O)O` [Valine, L-Valine], the “TNFa Measurements Mean” value ([1]; Conc. 234 μM (baseline)) was 0, the “TNFa Measurements Mean” value ([1]; Conc. 4684 μM) was −40.37 and the “TNFa Measurements Mean” value ([1]; Conc. 11710 μM) was −41.77. The “TNFa Measurements Mean” value ([1]; Conc. 23420 μM) was −14.98, the “Donor 2 TNFa Measurements Mean” value ([1]; Conc. 234 μM (baseline)) was −4.7E−15 and the “Donor 2 TNFa Measurements Mean” value ([1]; Conc. 4684 μM) was −0.00221. The “Donor 2 TNFa Measurements Mean” value ([1]; Conc. 11710 μM) was −0.835, the “Donor 2 TNFa Measurements Mean” value ([1]; Conc. 23420 μM) was −1.251 and the “Donor 3 TNFa Measurements Mean” value ([1]; Conc. 234 μM (baseline)) was −2.4E−15. The “Donor 3 TNFa Measurements Mean” value ([1]; Conc. 4684 μM) was 0.126, the “Donor 3 TNFa Measurements Mean” value ([1]; Conc. 11710 μM) was −2.599 and the “Donor 3 TNFa Measurements Mean” value ([1]; Conc. 23420 μM) was 3.688. The “Fold Change MCP1 Secretion Normalized Per Cell” value ([2]; donor 3, Conc. 234 μM (plasma background, reference)) was 1.0000, the “Fold Change MCP1 Secretion Normalized Per Cell” value ([2]; donor 3, Conc. 4684 μM) was 1.0630 and the “Fold Change MCP1 Secretion Normalized Per Cell” value ([2]; donor 3, Conc. 11710 μM) was 1.0204. For the same compound, the “Fold Change MCP1 Secretion Normalized Per Cell” value ([2]; donor 3, Conc. 23420 μM) was 1.2651, the “Fold Change MCP1 Secretion Normalized Per Cell” value ([2]; donor 4, Conc. 234 μM (plasma background, reference)) was 1.0000 and the “MCP-1 chemokine secretion, per-cell normalized, fold change from plasma amino acid background” value ([2]; primary human hepatic stellate cells, two donors, TNFα 3 ng/mL, 12 hours) was “no significant impact”.
